Test results: patent publication US5552156A, “Liposomal and micellular stabilization of camptothecin drugs” (Ohio State University, priority 1995, dated 1996)

Tests used:
Format in all cases: physicochemical
[1] = Fluorescence excitation and emission spectra of camptothecin drugs free in solution and bound to liposomes; details: for λMAX emission, DMPG: DMPG liposomes 0.29 M; for λMAX emission, DMPG / λMAX emission, PBS / λMAX emission, DMPC: pH 7.4, 37° C.; for λMAX emission, PBS: free in PBS; for Relative Fluorescence: in PBS, pH 7.4, at excitation and emission λMAX; for λMAX excitation: pH 7.4, 2 μM drug, PBS; for λMAX emission, DMPC: DMPC liposomes 0.29 M
Excerpt: The camptothecin drugs are intrinsically intensely fluorescent. Fluorescence is associated with the extended conjugation of the quinoline ring system. The liposomes of Examples 1-7 were characterized for the presence of the camptothecin drugs, using excitation and emission spectrography, and fluorescence anisotropy.
(§1) Steady-state fluorescence measurements were obtained on a SLM Model 4800C. spectrofluorometer with a thermostated cuvette compartment. This instrument was interfaced with an IBM PS/2 model 55 SX computer. Excitation and emission spectra were recorded with an excitation resolution of 8 nm and an emission resolution of 4 nm. In all cases spectra were corrected for background fluorescence and scatter from unlabeled lipids or from solvents by subtraction of the spectrum of a blank. Steady-state fluorescence intensity measurements were made in the absence of polarizer. Steady-state anisotropy (a) measurements were determined with the instrument in the "T-format" for simultaneous measurement of two polarized intensities. The alignment of polarizers were checked routinely using a dilute suspension of 0.25 μm polystyrene microspheres from Polysciences, Inc, Warrington, Pa., in water; anisotropy values of >0.99 were obtained. The anisotropy was calculated from a=(Ivv -GlVH)/(Ivv +GIVH), where G-IVH /IHH and the subscripts refer to vertical and horizontal orientations of the excitation and emission polarizers, respectively.
(§2) Anisotropy measurements for camptothecin, camptothecin carboxylate sodium salt, and 10,11-methylenedioxycamptothecin were conducted using exciting light of 370 nm and 420 nm long wave pass filters on each emission channel in order to isolate the fluorescence signal from background scatter and signal. For topotecan a 400 nm excitation wavelength and a 500 nm emission filter were used and for 9-aminocamptothecin a 375 nm excitation and a wavelength 420 nm emission filter were used. For AMC and CMC, a 370 nm excitation wavelength and a 400 nm emission filter were used. For 10-hydroxycamptothecin 375 nm excitation wavelength 500 nm emission filter was used. Emission filters were obtained from Oriel Corp. Stamford, Conn. The combination of exciting light and emission filters allows one to adequately separate the fluorescence from the background signal. The contribution of background fluorescence, together with scattered light, was typically less than 1% of the total intensity. Since the lactone ring of the camptothecin drug undergoes hydrolysis in aqueous medium, all measurements were completed within the shortest possible time, less than 1 minute after mixing the drug stock solution with PBS or the liposomes. In each case, analysis was initiated immediately after mixing the drug stock solution with PBS or with the liposomes. All measurements were performed at 37° C. unless otherwise noted.
The relative fluorescence intensity of 1×10^-6 M of camptothecin free in PBS buffer at 37° C. is shown. The emission spectra of the camptothecin was recorded using exciting light of 370 nm.
An exciting light of 390 nm was used to record the emission spectra of topotecan. A decrease in the emission intensity is observed for topotecan associated with the DMPG liposome.
All spectra were recorded using camptothecin drug concentrations of 2
μM. The DMPC and DMPG concentrations were 0.29 M. Experiments were
conducted in PBS buffer at 37° C.
Also found in Table II is a relative index of the emission intensity levels from these camptothecin drugs in PBS at their respective excitation and emission λMAX.

[2] = Steady-state fluorescence anisotropy in solvents and liposomes; details: for steady-state anisotropy (a), DMPC: DMPC liposomes, 1/a vs. 1/[lipid] plot; for steady-state anisotropy (a), DMPC / steady-state anisotropy (a), DMPG / steady-state anisotropy (a), PBS / steady-state anisotropy (a), glycerol / steady-state anisotropy (a), octanol / steady-state anisotropy (a), DSPC: 37° C.; for steady-state anisotropy (a), DMPG: DMPG liposomes; for steady-state anisotropy (a), PBS / steady-state anisotropy (a), glycerol / steady-state anisotropy (a), octanol: 1 μM drug; for limiting fluorescence anisotropy a0: extrapolated to -25° C.; for limiting fluorescence anisotropy a0 / steady-state anisotropy (a), glycerol: glycerol; for steady-state anisotropy (a), DSPC: DSPC liposomes
Protocol: as §1, §2
While the spectral changes provide qualitative evidence that the camptothecin drugs bind the liposome membranes, fluorescence anisotropy titration, offers the most sensitive means for quantitatively assessing the extent of the binding. The fluorescence anisotropy titration was performed according to the method of Burke and Tritton, Biochemistry 24: 1768-1776 (1985).
A steady-state fluorescence anisotropy (a) measurement is related to the rotational rate of the fluorescent molecule through the Perrin Equation: […]
where a0 is the limiting fluorescence anisotropy value, that is, the anisotropy value in the absence of depolarizing rotations, T is the excited-state lifetime, and .phi. is the rotational correlative time of the fluorophore. According to Equation 1, changes in either the T or .phi. values of a fluorescent compound can modulate its steady-state anisotropy.
The limiting fluorescence anisotropy (a0) values were also measured. The maximum values of (a) were obtained by dissolving the camptothecin drugs in the viscous solvent glycerol and cooling the samples to low temperatures. Steady-stated anisotropy (a) values were determined for samples containing 1 μM drug at 37° C.
Where the solvent viscosity is high and temperature is low, depolarizing rotations are at a minimum. By extrapolating these (a) values to -25° C., the limiting anisotropy values (a0) for the camptothecin drugs, were determined. […]

[3] = Overall association constant by fluorescence anisotropy titration, DSPC liposomes; details: for overall association constant K, DSPC: DSPC (electroneutral, solid phase), PBS, 37° C.
Protocol: The concentrations of free camptothecin drugs and camptothecin drugs associated with liposomes were determined at various lipid concentrations. […] The titration was conducted at camptothecin drug concentration of 1×10^-6 M in PBS at 37° C. Anisotropy values at each lipid concentration were determined within less than 30 seconds following the addition of the camptothecin drugs to the liposome suspension. […] By varying the lipid concentration rather than varying the drug concentration, the problem of self-association phenomenon which occurs for camptothecin drugs concentrations in excess of 10 μM is avoided. Also, the well-known phenomenon known as inner filter effect which occurs using fluorescent material at high optical densities is a is avoided.
Overall association constants are defined as:
where [AB ] represents the concentration of the camptothecin drug bound to the vesicle membrane, [AF ] represents the concentration of free drug, and [L] represents the total lipid concentration in the liposome suspension. This equation is valid when the concentration of free lipid is approximately equal to the concentration of total lipid, that is, the concentration of free lipid is in great excess over the concentration of bound drug. Provided this concentration is satisfied, K may be determined from the inverse of the slope of a double reciprocal plot according to (Burke and Tritton, Biochemistry 24:1776, 1985). In such a plot, 1/bound fraction of the total camptothecin drug is plotted vs. 1/[lipid], with a y-intercept value of 1.

Row | Structure (SMILES) | λMAX emission, DMPG [1] | λMAX emission, PBS [1] | Relative Fluorescence [1] | λMAX excitation ([1]; 37° C.) | steady-state anisotropy (a), DMPC [2] | steady-state anisotropy (a), DMPG [2] | steady-state anisotropy (a), PBS [2] | limiting fluorescence anisotropy a0 [2] | steady-state anisotropy (a), glycerol [2] | steady-state anisotropy (a), octanol [2] | overall association constant K, DSPC [3] | λMAX emission, DMPC [1] | spectral shift on association with DMPC liposomes ([1]; DMPC, relative to free drug) | blue shift of emission λmax on binding DMPG liposomes ([1]; relative to free camptothecin, 1×10^-6 M, 37° C.) | steady-state anisotropy (a), DSPC [2] | enhancement in steady-state anisotropy (a) value ([2]; bound to DMPG liposomes) | binding preference for DSPC liposomes over DMPC liposomes ([3]; solid-phase DSPC over fluid-phase DMPC) | shifting in the emission spectrum with DMPG liposomes ([1]; 1 μM, DMPG liposomes) | binding preference for DSPC liposomes over DMPC liposomes ([3]; dspc over dmpc liposomes)
1 | CCC1(O)C(=O)OCc2c1cc1n(c2=O)Cc2cc3c(Cl)c4c(cc3nc2-1)OCO4 (stereo not shown) [9-chloro-10,11-methylenedioxycamptothecin] | 417 nm | 410 nm | 1 | 394 nm | 0.202 | 0.207 | 0.025 | 0.367 | 0.363 | 0.098 | 500 M⁻¹ | – | – | – | – | – | – | – | –
2 | CCC1(O)C(=O)OCc2c1cc1n(c2=O)Cc2cc3cc4c(cc3nc2-1)OCO4 (stereo not shown) [10,11-methylenedioxycamptothecin] | 408 nm | 410 nm | 1 | 395 nm | 0.168 | 0.206 | 0.021 | 0.374 | 0.357 | 0.089 | – | 408 nm | – | – | – | – | – | – | –
3 | CCC1(O)C(=O)OCc2c1cc1n(c2=O)Cc2cc3cc(O)ccc3nc2-1 (stereo not shown) [10-hydroxycamptothecin] | 550 nm | 561 nm | 0.5 | 392 nm | 0.191 | 0.201 | 0.021 | 0.372 | 0.331 | 0.127 | – | 558 nm | – | – | – | – | – | – | –
4 | CC[C@@]1(O)C(=O)OCc2c1cc1n(c2=O)Cc2cc3ccccc3nc2-1 [camptothecin] | 422 nm | 438 nm | 1 | 366 nm | 0.127 | 0.122 | 0.007 | 0.383 | 0.334 | 0.051 | 300 M⁻¹ | 433 nm | about 5 nm | about 16 nm | 0.087 | 17 -fold | 3 -fold | – | –
5 | CC[C@@]1(O)C(=O)OCc2c1cc1n(c2=O)Cc2cc3c(CN(C)C)c(O)ccc3nc2-1 [topotecan] | 533 nm | 537 nm | 1 | 410 nm | 0.125 | 0.170 | 0.008 | 0.367 | 0.320 | 0.071 | – | 538 nm | – | – | 0.059 | – | – | Only a slight shifting in the emission spectrum | 5 -fold
